Measured values as given in patent EP4818155A1, “AZOBENZENE-[…], PROTEIN-COUPLED DRUG […], AND PHARMACEUTICAL USE THEREOF” (priority 2023, dated 2025).
Square brackets hold non-standard residues; d marks the D form. Peptide text beside a SMILES is read from it. * marks the point of attachment. Dolaproine = CO[C@@H]([C@@H]1CCCN1)[C@@H](C)C(=O)O; Dil = CC[C@H](C)[C@H](NC)[C@@H](CC(=O)O)OC; X1 = C[C@@H](N*)[C@@H](O)c1ccccc1; NMeV = CN[C@H](C(=O)O)C(C)C

Columns and labels:
[1] = Distribution and metabolism in blood, tissues and tumour; format: in vivo, mice; conditions: for area under the drug-time curve as share of that in tumors: after compound III-2 25 mg/kg
Protocol: The present example evaluated distribution and metabolism of compound III-2. SKOV3 ovarian cancer tumor-bearing mice were randomly divided into 6 groups. After tail vein injection with a single dose of compound III-2 (25 mg/kg), the mice were euthanized at the predetermined time points of 6 h, 24h, 72 h, 96 h, 168 h, 192 h in order, and blood, heart, liver, spleen, lung, and tumor samples were collected. The blood and tissue samples were stored at -80 °C for further analysis. […] At 96 h after the administration, Cys-II-2 was hardly detected in heart, liver, spleen, and lung. The peak concentration and area under the curve of the cytotoxin MMAE in the tumor were 293 times and 941 times those in peripheral blood, respectively, further proving that the excellent targeting capability of compound III-2. The area under the drug-time curve of MMAE in heart, liver, spleen and lung were 11%, 47%, 5% and 7% of area under the drug-time curve in tumors, respectively. […] Table 5 Concentration of Cys-II-2 in each group

MCF-7 = test: In vitro cytotoxicity (CellTiter Glo); format: cell-based; conditions: Homo sapiens, MCF7; hypoxic conditions (0.1% O2), HER2-; read-out: EC50 (cell proliferation inhibitory activity)
Protocol: (§1) The test procedure was shown as follows: • 1. Thawing Cell • Cryopreserved target cells was thawed by gentle agitation of the cryovial in a 37 °C water bath; • after thawing, the cryovial was removed from the water bath and decontaminated by spraying or immersing in 70% ethanol; • the cells in the cryovial were transferred into a centrifuge tube containing 9 mL of complete DMEM culture medium, followed by centrifugation at 200 g for 5 min; • the cells were resuspended with culture medium, and precipitated and seeded into a 75 cm^2 culture flask; • the cells were cultured in a Galaxy® CO2 incubator (48R, #CO48312044) under standard culture conditions of 37 °C, 20% oxygen and 5% carbon dioxide. • 2. Spreading Cell • Cells were subcultured three times per week at a ratio of 1:4 in a culture medium supplemented with 10% FBS (heat inactivated) and a 1% Penicillin-Streptomycin solution; • for cell passaging, adherent cells were first rinsed with 3 mL of trypsin/EDTA solution (3 mL). Then, 3 mL of trypsin/EDTA solution was added to the T75 culture flask, and the flask was gently rotated to ensure uniform coverage of the cell. The cells were incubated at 37 °C until complete cell detachment was achieved. Cell detachment was verified under a microscope, then an equal volume of the cell culture medium was added to inactivate the trypsin, and the separated cells were collected, centrifuged at 200 g for 5 minutes, and then re-suspended in a fresh culture medium. • 3. Inoculating cell • The cells were collected and counted; • 100 µ L of a cell suspension with adjusted density were inoculated to a 96-well cell culture plate, and the final cell density was about from 5000 cells/well to 10000 cells/well; • The culture plate was covered and incubated in a 5% CO2 incubator with 20% oxygen at 37 °C for 24 h. • 4. […] Co-incubation of cells with test compounds The culture medium in the 96 wells plate inoculated with cells was discarded, 150 µL of fresh culture medium was added to each well, and then 50 µL of the prepared test compounds were added to the 96-well plate. After the cells were co-incubated with the compounds in an incubator under conditions of 37 °C, 5% CO2, and 0.1% O2 for 24 h. After incubation, the drug-containing medium was removed, and the cells were rinsed with a fresh culture medium. Then the cells were placed in an incubator at 37 °C, 5% CO2, and 20% O2 and continuously cultured for an additional 72 h or 120 h. • 6. Reading plate • The plate was taken out of the incubator and equilibrated for 15 minutes at room temperature; • prior to the experiment, the CellTiter Glo reagent was incubated at 37 °C; • The detection solution was prepared by diluting CellTiter-Glo reagent with PBS at a volume ratio of 3:7, and the diluted solution was added into the wells to be tested; • the plate was then shaken at room temperature for 8 min, and allowed to stand for 2 min, and then signals were detected using an EnSpire reader. • 7.

MDA-MB-231 = test: In vitro cytotoxicity (CellTiter Glo); format: cell-based; conditions: Homo sapiens, hypoxic conditions (0.1% O2), HER2-, read-out: EC50 (cell proliferation inhibitory activity)
Protocol: as §1

SKBR3 = test: In vitro cytotoxicity (CellTiter Glo); format: cell-based; conditions: Homo sapiens, SK-BR-3, read-out: EC50 (cell proliferation inhibitory activity)
Protocol: as §1

NCI-N87 = test: In vitro cytotoxicity (CellTiter Glo); format: cell-based; conditions: Homo sapiens, hypoxic conditions (0.1% O2), HER2+, read-out: EC50 (cell proliferation inhibitory activity)
Protocol: as §1

BT-474 = test: In vitro cytotoxicity (CellTiter Glo); format: cell-based; conditions: Homo sapiens, BT-474, read-out: EC50 (cell proliferation inhibitory activity)
Protocol: as §1

[2] = tested on: Staphylococcus aureus USA300; test: Antibacterial activity against free bacteria (OD600nm); format: cell-based; conditions: free USA300, 37 °C, 16 h to 18h
Protocol: The present example evaluated the antibacterial efficacy of compound III-16 against free Staphylococcus aureus. 5 µL to 10 µL of a Staphylococcus aureus USA300 stock suspension stored at - 80 °C was taken and streaked on Brain Heart Infusion solid culture plates and incubated overnight at 37 °C in a biochemical incubator. A single USA300 colony was picked from the solid culture plates, inoculated into an appropriate volume of Brain Heart Infusion medium, and activated for 16 h to 18 h in a bacteria shaking incubator, then the bacterial suspension was centrifuged for 5 min at a rotating speed of 4000 rpm to collect the bacteria. The bacteria were resuspended in 1×PBS and the bacterial density was diluted to about […]. The diluted bacterial suspension was added to 96-well plates at 100 µL per well. Serially diluted compound III-16 and rifalogue were added to the bacterial suspension in the 96-well plates, and the bacteria was cultured in a biochemical incubator at 37 °C for 16 h to 18h, then the OD600nm was detected using a microplate reader. […] Without being limited by theories, it is speculated that the activity of compound III-16 against free bacteria may be stemed from the cleavage of the linker in compound III-16 by azoreductase extracellularly secreted by the bacteria, which releases rifalogue to exert antibacterial effect.

[3] = after compound III-2 25 mg/kg single tail vein injection

**Q.** What does the source list for `CC[C@H](C)[C@@H]([C@@H](CC(=O)N1CCC[C@H]1[C@H](OC)[C@@H](C)C(=O)N[C@H](C)[C@@H](O)c1ccccc1)OC)N(C)C(=O)[C@@H](NC(=O)[C@@H](NC)C(C)C)C(C)C` [MMAE] (H-[NMeV]V[Dil][Dolaproine]-X1)?
**A.** Concentration of MMAE ([1]; Blood, 6 h, after compound III-2 25 mg/kg single tail vein injection): 1.54 ng/g or ng/mL; Concentration of MMAE ([1]; Blood, 24 h, after compound III-2 25 mg/kg single tail vein injection): 0.51 ng/g or ng/mL; Concentration of MMAE ([1]; Blood, 72 h, after compound III-2 25 mg/kg single tail vein injection): 0.23 ng/g or ng/mL; Concentration of MMAE ([1]; Blood, 96 h, after compound III-2 25 mg/kg single tail vein injection): 0.12 ng/g or ng/mL; Concentration of MMAE ([1]; Blood, 168 h, after compound III-2 25 mg/kg single tail vein injection): 0.10 ng/g or ng/mL; Concentration of MMAE ([1]; Blood, 192 h, after compound III-2 25 mg/kg single tail vein injection): BQL; Concentration of MMAE ([1]; Heart, 6 h, after compound III-2 25 mg/kg single tail vein injection): 112.72 ng/g or ng/mL; Concentration of MMAE ([1]; Heart, 24 h, after compound III-2 25 mg/kg single tail vein injection): 71.97 ng/g or ng/mL; Concentration of MMAE ([1]; Heart, 72 h, after compound III-2 25 mg/kg single tail vein injection): 32.46 ng/g or ng/mL; Concentration of MMAE ([1]; Heart, 96 h, after compound III-2 25 mg/kg single tail vein injection): 17.99 ng/g or ng/mL; Concentration of MMAE ([1]; Heart, 168 h, after compound III-2 25 mg/kg single tail vein injection): 2.70 ng/g or ng/mL; Concentration of MMAE ([1]; Heart, 192 h, after compound III-2 25 mg/kg single tail vein injection): 0.80 ng/g or ng/mL; Concentration of MMAE ([1]; Liver, 6 h, after compound III-2 25 mg/kg single tail vein injection): 348.31 ng/g or ng/mL; Concentration of MMAE ([1]; Liver, 24 h, after compound III-2 25 mg/kg single tail vein injection): 269.21 ng/g or ng/mL; Concentration of MMAE ([1]; Liver, 72 h, after compound III-2 25 mg/kg single tail vein injection): 115.44 ng/g or ng/mL; Concentration of MMAE ([1]; Liver, 96 h, after compound III-2 25 mg/kg single tail vein injection): 101.72 ng/g or ng/mL; Concentration of MMAE ([1]; Liver, 168 h, after compound III-2 25 mg/kg single tail vein injection): 26.86 ng/g or ng/mL; Concentration of MMAE ([1]; Liver, 192 h, after compound III-2 25 mg/kg single tail vein injection): 10.07 ng/g or ng/mL; Concentration of MMAE ([1]; Lung, 6 h, after compound III-2 25 mg/kg single tail vein injection): 22.96 ng/g or ng/mL; Concentration of MMAE ([1]; Lung, 24 h, after compound III-2 25 mg/kg single tail vein injection): 12.85 ng/g or ng/mL; Concentration of MMAE ([1]; Lung, 72 h, after compound III-2 25 mg/kg single tail vein injection): 19.79 ng/g or ng/mL; Concentration of MMAE ([1]; Lung, 96 h, after compound III-2 25 mg/kg single tail vein injection): 43.95 ng/g or ng/mL; Concentration of MMAE ([1]; Lung, 168 h, after compound III-2 25 mg/kg single tail vein injection): 1.93 ng/g or ng/mL; Concentration of MMAE ([1]; Lung, 192 h, after compound III-2 25 mg/kg single tail vein injection): 1.04 ng/g or ng/mL; Concentration of MMAE ([1]; Spleen, 6 h, after compound III-2 25 mg/kg single tail vein injection): 21.29 ng/g or ng/mL; Concentration of MMAE ([1]; Spleen, 24 h, after compound III-2 25 mg/kg single tail vein injection): 19.80 ng/g or ng/mL; Concentration of MMAE ([1]; Spleen, 72 h, after compound III-2 25 mg/kg single tail vein injection): 20.24 ng/g or ng/mL; Concentration of MMAE ([1]; Spleen, 96 h, after compound III-2 25 mg/kg single tail vein injection): 13.60 ng/g or ng/mL; Concentration of MMAE ([1]; Spleen, 168 h, after compound III-2 25 mg/kg single tail vein injection): 3.82 ng/g or ng/mL; Concentration of MMAE ([1]; Spleen, 192 h, after compound III-2 25 mg/kg single tail vein injection): 1.40 ng/g or ng/mL; Concentration of MMAE ([1]; Tumour, 6 h, after compound III-2 25 mg/kg single tail vein injection): 54.24 ng/g or ng/mL; Concentration of MMAE ([1]; Tumour, 24 h, after compound III-2 25 mg/kg single tail vein injection): 179.62 ng/g or ng/mL; Concentration of MMAE ([1]; Tumour, 72 h, after compound III-2 25 mg/kg single tail vein injection): 292.45 ng/g or ng/mL; Concentration of MMAE ([1]; Tumour, 96 h, after compound III-2 25 mg/kg single tail vein injection): 451.68 ng/g or ng/mL; Concentration of MMAE ([1]; Tumour, 168 h, after compound III-2 25 mg/kg single tail vein injection): 198.90 ng/g or ng/mL; Concentration of MMAE ([1]; Tumour, 192 h, after compound III-2 25 mg/kg single tail vein injection): 125.44 ng/g or ng/mL; area under the curve in the tumor relative to peripheral blood [1, 3]: 941 times; peak concentration in the tumor relative to peripheral blood [1, 3]: 293 times; area under the drug-time curve as share of that in tumors ([1]; heart): 11%; area under the drug-time curve as share of that in tumors ([1]; liver): 47%; area under the drug-time curve as share of that in tumors ([1]; lung): 7%; area under the drug-time curve as share of that in tumors ([1]; spleen): 5%; EC50 (MCF-7): 0.015 nM; EC50 (MDA-MB-231): 0.57 nM; EC50 (SKBR3): 0.058 nM; EC50 (NCI-N87): 0.24 nM; EC50 (BT-474): 0.032 nM

**Q.** Which MIC90 [2] does the source give for `CO[C@H]1C=CO[C@@]2(C)Oc3c(C)c(O)c4c(=O)c(c5oc6cc(N7CCC(N(C)C)CC7)cc(=O)c6nc5c4c3=C2O)NC(=O)/C(C)=C\C=C/[C@H](C)[C@H](O)[C@@H](C)[C@@H](O)[C@@H](C)[C@H](OC(C)=O)[C@@H]1C` [rifalogue] here?
**A.** Its MIC90 is “about 1.4 nM”.
